The supplement of paper PMC10307832

Columns and labels:
Assay in all cases: relative viability (nuclei count vs DMSO), 5 days (fraction); higher = more cells survive
[1] = compound: CC(C)C[C@H](NC(=O)[C@H](Cc1ccccc1)NC(=O)c1cnccn1)B(O)O [Bortezomib] + Cc1nc(Nc2ncc(C(=O)Nc3c(C)cccc3Cl)s2)cc(N2CCN(CCO)CC2)n1 [Dasatinib] (partner 0.075 µM)
Method in brief: (§1)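 Five library-drug doses in √10 steps were combined with a fixed anchor-drug dose, or a single drug was given alone, by pin tool to lung cancer cell lines in 1536-well plates the day after seeding. Nuclei were stained and counted after 5 days. Relative viability is the nuclei count in treated wells over that in vehicle wells, taken as the median of duplicate plates.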

[2] = compound: CC1=CC(=NN1)NC2=CC(=NC(=N2)/C=C/C3=CC=CC=C3)N4CCN(CC4)C + CS(=O)(=O)N1CCN(Cc2cc3nc(-c4cccc5[nH]ncc45)nc(N4CCOCC4)c3s2)CC1 [Pictilisib] (partner 1 µM)
Method in brief: as §1

[3] = compound: CC1=CC(=NN1)NC2=CC(=NC(=N2)/C=C/C3=CC=CC=C3)N4CCN(CC4)C + Nc1ncn([C@H]2C[C@H](O)[C@@H](CO)O2)c(=O)n1 [Decitabine] (partner 2 µM)
Method in brief: as §1

[4] = compound: COC1=CC(c2cc3ccccc3[nH]2)=N/C1=C\c1[nH]c(C)cc1C [Obatoclax] + O=C(c1cc(Cc2n[nH]c(=O)c3ccccc23)ccc1F)N1CCN(C(=O)C2CC2)CC1 [Olaparib] (partner 8 µM)
Method in brief: as §1

Cell Line | relative viability ([1]; first compound 0.0002 µM) | relative viability ([1]; first compound 0.000632 µM) | relative viability ([1]; first compound 0.002 µM) | relative viability ([1]; first compound 0.006325 µM) | relative viability ([1]; first compound 0.02 µM) | relative viability ([2]; first compound 0.08 µM) | relative viability ([2]; first compound 0.253 µM) | relative viability ([2]; first compound 0.8 µM) | relative viability ([2]; first compound 2.53 µM) | relative viability ([2]; first compound 8 µM) | relative viability ([3]; first compound 0.08 µM) | relative viability ([3]; first compound 0.253 µM) | relative viability ([3]; first compound 0.8 µM) | relative viability ([3]; first compound 2.53 µM) | relative viability ([3]; first compound 8 µM) | relative viability ([4]; first compound 0.01 µM) | relative viability ([4]; first compound 0.03162 µM) | relative viability ([4]; first compound 0.1 µM) | relative viability ([4]; first compound 0.3162 µM) | relative viability ([4]; first compound 1 µM)
NCI-H1651 | 0.387 | 0.442 | 0.153 | 0.105 | 0.0988 | 0.656 | 0.622 | 0.583 | 0.201 | 0.0876 | 0.356 | 0.597 | 0.613 | 0.322 | 0.132 | 0.182 | 0.164 | 0.189 | 0.224 | 0.179
NCI-H1666 | 0.759 | 0.845 | 0.837 | 0.329 | 0.326 | 0.494 | 0.389 | 0.358 | 0.325 | 0.176 | 0.574 | 0.682 | 0.749 | 0.719 | 0.584 | 0.769 | 0.726 | 0.766 | 0.691 | 0.585
NCI-H1734 | 0.469 | 0.45 | 0.516 | 0.112 | 0.109 | 0.463 | 0.422 | 0.456 | 0.214 | 0.122 | 0.515 | 0.531 | 0.544 | 0.362 | 0.16 | 0.609 | 0.624 | 0.601 | 0.546 | 0.505
NCI-H1755 | 0.449 | 0.326 | 0.418 | 0.176 | 0.196 | 0.418 | 0.351 | 0.419 | 0.195 | 0.0971 | 0.707 | 0.65 | 0.733 | 0.663 | 0.428 | 0.873 | 0.901 | 0.868 | 0.787 | 0.839
NCI-H1792 | 0.722 | 0.59 | 0.504 | 0.759 | 0.443 | 0.268 | 0.259 | 0.293 | 0.205 | 0.0778 | 0.435 | 0.556 | 0.377 | 0.332 | 0.0377 | 0.423 | 0.334 | 0.299 | 0.369 | 0.405
NCI-H1793 | 0.35 | 0.324 | 0.381 | 0.361 | 0.168 | 0.229 | 0.235 | 0.306 | 0.293 | 0.116 | 0.488 | 0.554 | 0.43 | 0.127 | 0.123 | 0.869 | 0.833 | 0.939 | 0.784 | 0.783
NCI-H1915 | 0.234 | 0.329 | 0.315 | 0.128 | 0.0542 | 0.948 | 0.674 | 0.885 | 0.571 | 0.289 | 0.241 | 0.273 | 0.261 | 0.238 | 0.168 | 0.269 | 0.256 | 0.252 | 0.257 | 0.247
NCI-H1944 | 0.225 | 0.212 | 0.222 | 0.214 | 0.137 | 0.317 | 0.34 | 0.348 | 0.281 | 0.223 | 0.4 | 0.485 | 0.478 | 0.351 | 0.252 | 0.412 | 0.427 | 0.443 | 0.418 | 0.392
NCI-H1975 | 0.385 | 0.266 | 0.106 | 0.0685 | 0.084 | 0.284 | 0.307 | 0.25 | 0.128 | 0.0893 | 0.377 | 0.406 | 0.344 | 0.314 | 0.154 | 0.78 | 0.695 | 0.746 | 0.744 | 0.288
NCI-H1993 | 0.542 | 0.578 | 0.577 | 0.408 | 0.456 | 0.817 |  | 0.744 | 0.808 | 0.599 | 0.526 | 0.598 | 0.616 | 0.47 | 0.445 | 0.95 | 1.15 | 0.984 | 1.01 | 1.11
NCI-H2009 | 0.291 | 0.254 | 0.244 | 0.0687 | 0.0717 | 0.754 | 0.415 | 0.781 | 0.25 | 0.142 | 0.357 | 0.377 | 0.444 | 0.282 | 0.151 | 0.687 | 0.712 | 0.705 | 0.573 | 0.26
NCI-H2023 | 0.59 | 0.556 | 0.558 | 0.124 | 0.0683 | 0.203 | 0.266 | 0.197 | 0.0664 | 0.0528 | 0.22 | 0.221 | 0.231 | 0.0739 | 0.0699 | 0.485 | 0.574 | 0.442 | 0.246 | 0.15
NCI-H2085 | 0.31 | 0.253 | 0.207 | 0.209 | 0.241 | 0.437 | 0.39 | 0.431 | 0.18 | 0.236 | 0.541 | 0.507 | 0.56 | 0.336 | 0.298 | 0.726 | 0.784 | 0.747 | 0.816 | 0.708
NCI-H2087 | 0.684 | 0.819 | 0.458 | 0.0422 | 0.037 | 0.828 | 0.542 | 0.877 | 0.447 | 0.141 | 0.294 | 0.193 | 0.265 | 0.0921 | 0.0912 | 0.588 | 0.596 | 0.436 | 0.451 | 0.226
NCI-H2126 | 0.58 | 0.607 | 0.662 | 0.254 | 0.2 | 0.499 | 0.461 | 0.522 | 0.482 | 0.338 | 0.602 | 0.595 | 0.55 | 0.561 | 0.27 | 0.872 | 0.851 | 0.903 | 0.865 | 0.918
NCI-H2170 | 0.546 | 0.378 | 0.502 | 0.16 | 0.144 | 0.283 | 0.301 | 0.257 | 0.166 | 0.136 | 0.452 | 0.51 | 0.467 | 0.373 | 0.251 | 0.574 | 0.607 | 0.574 | 0.585 | 0.655
